Experimental data published in patent US20040192889A1, “Cytotoxic peptides and peptidomimetics based thereon, and methods for use thereof” (priority 2001, published 2004).
“Also recorded” adds a separate entry of the source. Residues, ends and D or L forms follow the SMILES beside them. No end group written: not given here. *: point of attachment. Cbz = O=C(OCc1ccccc1)*; CH2F = FC*

Columns and labels:
[1] = test system: primary hippocampal cultures; experiment: Hoechst 33342 staining of condensed, fragmented (apoptotic) nuclei in primary hippocampal cultures; assay type: cell-based, rat; settings: for percentage of apoptotic nuclei (Hoechst 33342): cultures preincubated with 5 μM Aβ for 24 h, then exposed to C-C31 or not
Protocol: (§1) Hippocampal or cortical neurons derived from 17-day old rat embryos were plated in modified minimum essential media (MEM-PAK) supplemented with 5% horse serum. Three days later, the cultures were treated with 10 μM cytosine arabinoside (AraC). Twenty-four h later the cells were treated with the peptide conjugates and incubated for an additional 24 or 48 h. Cells were incubated in the presence of 50 μM of the general caspase inhibitor BOC-Asp(Ome)-FMK (BAF) for 30 min prior to addition of peptides or with an equivalent volume of dimethylsulfoxide (DMSO) and then maintained in the presence of the same concentration of the inhibitor for the duration of the experiment. In all experiments involving Aβ, a 1 mM Aβ42 stock solution was used that had been incubated at 37° C. for 48 h and then stored at 4° C. to allow for the formation of Aβ fibrils. Aβ42 was purchased from AnaSpec (San Jose, Calif.).
(§2) Primary hippocampal or cortical neuronal culturesor 293 cells transduced with the different penetratin-peptide conjugates were assayed for viability at 24 and 48 h after transduction by trypan blue exclusion or by conversion of 3-[4,5-Dimethylthiazol-2-yl]-2,5-diphenyltetrazolium bromide; Thiazolyl blue (MTT, Sigma, St. Louis) to formazan by dehydrogenase enzymes (MTT, Sigma, St. Louis) and by the LIVE/DEAD assay (Molecular Probes, Eugene, Oreg.), which distinguishes live cells by the presence of intracellular esterase activity, which results in the conversion of the non-fluorescent cell permeant calcein-AM to the intensely green fluorescent calcein. Calcein is retained witlin live cells. Ethidium homodimer-1 (EthD-1) enters cells with damaged membranes and becomes intensely fluorescent when bonding to nucleic acids. EthD-1 is excluded by the intact plasma membrane of live cells. Media were removed and replaced by 4 μM EthD-1 and 2 μM calcein in PBS. […]
(§3) Aβ exacerbates the sensitivity of hippocampal cultures to C31 toxicity. […] Thirty-six hours later, the cultures were evaluated by the LIVE/DEAD assay. […] Cells were stained with Hoechst 33342 and scored for nuclear condensation.

[2] = test system: primary hippocampal cultures; experiment: LIVE/DEAD assay (calcein / EthD-1) of primary hippocampal cultures; assay type: cell-based, rat; settings: for toxicity of Aβ alone: 36 hours
Protocol: as §1, §2, §3

glial cells = experiment: Toxicity of transduced peptides to glial cells in primary hippocampal cultures (GFAP immunostaining, quantitative image analysis); assay type: cell-based, rat
Protocol: as §1
(§4) Peptides were synthesized and purified at the Stanford University Protein and Nucleic Acid (PAN) Facility. All peptide stocks were solubilized in water at 1 or 10 mM concentration. […]
Hippocampal cultures were fixed in 4% paraformaldehyde in 1× phosphate-buffered saline (PBS) for 20 min at room temperature (RT). […] Images were acquired using Nikon Eclipse-800 microscope and Optronics MagnaFire camera and software, and analyzed using Compix Simple PCI software. The total surface area corresponding to red and green fluorescence in each confocal image was determined by image analysis using Simple PCI software (Compix, Inc., Philadelphia).
To investigate whether this was due to a greater sensitivity of neurons than glial cells to DP-APPC31-induced death, 3-day-old rat hippocampal cultures were exposed to increasing concentrations of DP-APPC31 or control DP peptide and fixed 48 h after transduction. […] A quantitative assessment of the total area of red and green fluorescence present in low-magnification confocal images of representative fields obtained from three independent experiments was performed using a digital image analysis system (SimplePCl, Compix, Inc, Philadelphia). […]

hippocampal neurons = experiment: Toxicity of transduced peptides to neurons in primary hippocampal cultures (NeuN immunostaining, quantitative image analysis); assay type: cell-based; settings: for NeuN-immunoreactive (neuronal) population: 10 μM peptide
Protocol: as §1
Peptides were synthesized and purified at the Stanford University Protein and Nucleic Acid (PAN) Facility. All peptide stocks were solubilized in water at 1 or 10 mM concentration. […] A control peptide used was a fusion of the human immunodeficiency virus-1 TAT protein (HIV-TAT) delivery peptide sequence (Hileman et al., FEBS Lett. 415:145-154 (1997) and the first helix of the p75 receptor intracellular domain.
Hippocampal cultures were fixed in 4% paraformaldehyde in 1× phosphate-buffered saline (PBS) for 20 min at room temperature (RT). Cells were then rinsed in 1× PBS and then washed once in 1× Tris-buffered saline (TBS) followed by blocking in 10% donkey serum (Jackson ImmunoResearch Labs, West Grove, Pa.) with 0.1% Triton X-100 in 1×TBS for 1 h at RT. Cultures were incubated overnight in the presence of rabbit anti-GFAP (Sigma, St. Louis) at 1:800 dilution and mouse anti-NeuN (Chemicon, Temecula, Calif.) at 1:100 at 4° C. Negative controls were incubated in 2 mg/ml rabbit and mouse preinimune IgGs (Sigma, St. Louis). All primary antibodies were diluted in 1×TBS containing 10% donkey serum. Cultures were washed for 90 min in 4 changes of 1×TBS and incubated in the presence of donkey anti-rabbit IgG conjugated to Cy3 and donkey anti-mouse IgG conjugated to FITC (Jackson ImmunoResearch Laboratories, Inc., West Grove, Pa.), at 1:250 and 1:400, respectively, in 1×TBS containing 1% donkey serum for 1 h at RT. Cells were washed for 90 min in 4 changes of 1×TBS and mounted in VectaShield-DAPI mounting medium (Vector Laboratories, Burlingame, Calif.). Images were acquired using Nikon Eclipse-800 microscope and Optronics MagnaFire camera and software, and analyzed using Compix Simple PCI software. The total surface area corresponding to red and green fluorescence in each confocal image was determined by image analysis using Simple PCI software (Compix, Inc., Philadelphia).
To investigate whether this was due to a greater sensitivity of neurons than glial cells to DP-APPC31-induced death, 3-day-old rat hippocampal cultures were exposed to increasing concentrations of DP-APPC31 or control DP peptide and fixed 48 h after transduction. The fixed cultures were then immunostained with antibodies specific for GFAP (red) and NeuN (green). A quantitative assessment of the total area of red and green fluorescence present in low-magnification confocal images of representative fields obtained from three independent experiments was performed using a digital image analysis system (SimplePCl, Compix, Inc, Philadelphia).
APLP1C31 induces death in primary hippocampal cultures. […] If this event occurs in vivo, APLP1 would have the potential to generate a pro-apoptotic C-terminal peptide homologous to APPC31. To deterinine whether the peptide generated by caspase cleavage of APLP1 is toxic, a fusion of APLP1C31 to the Antennapedia delivery peptide (DP-APLP1C31) was generated and assayed in protein transduction experiments. […]

[3] = test system: primary hippocampal cultures; experiment: Viability of primary hippocampal cultures by MTT assay; assay type: cell-based, rat; settings: increasing concentrations
Protocol: as §1
Peptides were synthesized and purified at the Stanford University Protein and Nucleic Acid (PAN) Facility. All peptide stocks were solubilized in water at 1 or 10 mM concentration. […] A control peptide used was a fusion of the human immunodeficiency virus-1 TAT protein (HIV-TAT) delivery peptide sequence (Hileman et al., FEBS Lett. 415:145-154 (1997) and the first helix of the p75 receptor intracellular domain. […]

[4] = test system: primary hippocampal cultures; experiment: Viability of primary hippocampal cultures by trypan blue exclusion; assay type: cell-based, rat; settings: 5 μM Aβ
Protocol: as §1, §4, §3

N2a neuroblastoma cells = experiment: Annexin V-FITC staining of transfected N2a cells; assay type: cell-based, mouse
Protocol: Mouse N2a neuroblastoma cells were grown at 37° C. and 5% CO2 in […] Dulbecco's modified Eagle's medium and 45% OptiMEM I (Life Technologies) supplemented with 10% fetal bovine serum and 2 mM glutamine. Plasmid constructs were introduced into the N2a cells with the LipofectAMINE plus transfection reagent (Life Technologies) according to the manufacturer's instructions.
N2a cells were plated on glass cover slips treated with polylysine and were transfected as described above. At 24 h after transfection, cells were directly stained with annexin V-FITC for apoptosis in tissue culture media, according to the manufacturer's instructions (annexin V-FITC Apoptosis Detection Kit; Calbiochem, La Jolla, Calif.). After being stained with annexin V-FITC, cells were fixed for 20 min in 4% parafoimaldehyde in phosphate-buffered saline and permeabilized in 0.5% Triton X-100 in phosphate-buffered saline for 5 min. After being blocked in 5% BSA in phosphate-buffered saline, the cells were incubated for 1 h at room temperature with CT15, diluted 1:2,000. In parallel, cells were stained with propidium iodide after annexin V staining and paraformaldehyde fixation but without permeabilization to verify membrane integrity; the combination of amnexin V staining and membrane integrity indicated apoptosis without secondary necrosis. The primary antibody was detected with Texas Red®-conjugated secondary antibody against rabbit (Molecular Probes, Eugene, Oreg.). Negative controls, which included preimmune serum and cells transfected with pcDNA3 (mock transfection), were assayed in parallel using the protocol described above. The cells were analyzed by confocal nmcroscopy using a BioRad MRC-1024 system. Cells in five random fields were counted for each slide, in duplicate for each condition. The number of cells positive and negative for APP or C31 and apoptosis (annexin V-FITC) were determined, and relative risk was calculated (RR=p1/p2)=concordant staining [(+/+) times (−/−)] divided by discordant staining [(+/−) times (−/+)].
Double-labeling of APP and annexin V in N2a cells after transfection was performed. N2a cells were transfected with either APP or C31 followed by staining with annexin V-FITC to visualize apoptotic cells. Transfected cells were immunolocalized with CT15 followed by Texas Red conjugated secondary antibody to visualize APP or C31 expression. When expressed in N2a cells, C31 but not APP is associated with apoptosis. A high proportion of C31 transfected cells are positive for amnexin V-FITC (green outline of the cell; RR=6.3), whereas in APP-expressing cells, annexin V-FITC staining is sparse (RR=0.77). In control cells transfected with pcDNA3 (mock transfection; control), there is no staining with annexin V-FITC and essentially no staining of endogenous APP at this antibody dilution. Images are representations of four different fields of view of each of three separate experiments.

[5] = synthetic peptide delivered into primary cultures

Compound: CC[C@H](C)[C@H](NC(=O)[C@H](CCCCN)NC(=O)[C@@H](NC(=O)[C@H](CCC(N)=O)NC(=O)[C@H](CCCNC(=N)N)NC(=O)[C@@H](N)CSSC[C@H](N)C(=O)N[C@@H](C)C(=O)N[C@@H](C)C(=O)N[C@H](C(=O)N[C@H](C(=O)N1CCC[C@H]1C(=O)N[C@@H](CCC(=O)O)C(=O)N[C@@H](CCC(=O)O)C(=O)N[C@@H](CCCNC(=N)N)C(=O)N[C@@H](Cc1c[nH]cn1)C(=O)N[C@@H](CC(C)C)C(=O)N[C@@H](CO)C(=O)N[C@@H](CCCCN)C(=O)N[C@@H](CCSC)C(=O)N[C@@H](CCC(N)=O)C(=O)N[C@@H](CCC(N)=O)C(=O)N[C@@H](CC(N)=O)C(=O)NCC(=O)N[C@@H](Cc1ccc(O)cc1)C(=O)N[C@@H](CCC(=O)O)C(=O)N[C@@H](CC(N)=O)C(=O)N1CCC[C@H]1C(=O)N[C@H](C(=O)N[C@@H](Cc1ccc(O)cc1)C(=O)N[C@@H](CCCCN)C(=O)N[C@@H](Cc1ccccc1)C(=O)N[C@@H](Cc1ccccc1)C(=O)N[C@@H](CCC(=O)O)C(=O)N[C@@H](CCC(N)=O)C(=O)N[C@@H](CCSC)C(=O)N[C@@H](CCC(N)=O)C(=O)N[C@@H](CC(N)=O)C(=O)O)[C@@H](C)O)[C@@H](C)O)C(C)C)[C@@H](C)CC)C(=O)N[C@@H](Cc1c[nH]c2ccccc12)C(=O)N[C@@H](Cc1ccccc1)C(=O)N[C@@H](CCC(N)=O)C(=O)N[C@@H](CC(N)=O)C(=O)N[C@@H](CCCNC(=N)N)C(=O)N[C@@H](CCCNC(=N)N)C(=O)N[C@@H](CCSC)C(=O)N[C@@H](CCCCN)C(=O)N[C@@H](Cc1c[nH]c2ccccc12)C(=O)N[C@@H](CCCCN)C(=O)N[C@@H](CCCCN)C(=O)O [DP-APPC31]
- percentage of apoptotic nuclei (Hoechst 33342) [1]: 72%
- percentage of condensed, fragmented nuclei, concentration dependence ([1]; increasing concentrations, 30 hours after transduction): increase in the percentage of condensed, fragmented nuclei
- viability of hippocampal neuronal cultures ([2]; 10 μM, 24 h after transduction): marked decrease in viability
- glial (GFAP) population (glial cells; 10 μM peptide, 48 h after transduction): significantly reduced
- NeuN-immunoreactive (neuronal) population (hippocampal neurons): significantly reduced; also recorded: markedly reduced
- NeuN-immunoreactive (neuronal) population (hippocampal neurons; listed as C-C31): marked decrease
- number of viable cells converting MTT into formazan [3]: reduced the number of viable cells

Compound: Aβ: Aβ42 purchased from AnaSpec, stock incubated to allow formation of Aβ fibrils [reference compound]
- percentage of apoptotic nuclei (Hoechst 33342) [1]: ~9%
- toxicity of Aβ alone ([2]; 50 μM): decrease the number of viable cells in the culture substantially
- toxicity of Aβ alone ([2]; concentrations up to 25 μM): No measurable toxicity
- dead cells with Aβ alone [4]: did not increase the number of dead cells

Compound: PMLTLEEQQLRELQRHGYENPTYRFLEERP [APLP1-C31]
- LD50 for glial cells (glial cells; [5]): 35 to 40 µM
- LD50 for neurons (hippocampal neurons; [5]): around 3 micromolar

Compound: COC(=O)C[C@H](NC(=O)OC(C)(C)C)C(=O)CF [BAF, BOC-Asp(Ome)-FMK, reference compound]
- effect of caspase inhibitor on DP-APLP1C31 toxicity (hippocampal neurons; BAF 50 μM): delayed DP-APLP1C31 toxicity
- effect of caspase inhibitor on DP-APPC31 toxicity (hippocampal neurons; BAF 50 μM, DP-APPC31 10 μM): delayed the toxicity; also recorded: blocked the toxicity

Compound: CC(C)[C@H](NC(=O)OCc1ccccc1)C(=O)N[C@@H](C)C(=O)N[C@@H](CC(=O)O)C(=O)CF [zVAD.fmk, benzoxycarbonyl-Val-Ala-Asp-CH2F, reference compound] (Cbz-Val-Ala-Asp-CH2F)
- effect on annexin V staining of C31 transfected cells (N2a neuroblastoma cells; zVAD.fmk treatment): decreased annexin V staining of C31 transfected cells to control levels

Compound: APP: wild-type human APP695 expressed from pcDNA3 by transfection
- relative risk (RR) of annexin V-FITC staining with expression (N2a neuroblastoma cells; expression by transfection): 0.77
- annexin V-positive among construct-positive cells (N2a neuroblastoma cells; expression by transfection, no tamoxifen or staurosporine, 24 h): 13±5%
